# Measurements from patent US20240058363A1 (Emyria, priority 2020, published 2024).
# Marks after values point to notes of the source that are not given here.
# Tests used:
# [1] = tested on: patients; assay: Adverse events recorded at each visit in patients on CBD only; format: in vivo, human
# Description: Patients were assessed monthly by the clinical team (doctor and nurse) and a visit schedule protocol was followed for each patient. A full medical history was conducted at the initial visit, including a detailed history of the clinical indication (including duration symptoms), comorbidities mental and cardiac health conditions, previous procedures, medications and therapies tried. Patients were reviewed as per the Schedule of Assessments (FIG. 2). Cannabinoid dose and Adverse events were also recorded at each visit after treatment began and categorised as mild (no product change indicated), moderate (product change indicated), severe (product cessation indicated) or serious (life-threatening/medical emergency).
# Adverse events (AE) were recorded at each of the visits. AEs were categorised as either: Mild (required no change in dose or product), Moderate (required change in dose or product), Severe (required cessation of product) or Serious (medical emergency).
# All AEs reported during treatment were recorded. Assessments included monitoring of any or all of the following parameters: the participant's clinical symptoms, laboratory, pathological, radiological or surgical history, physical examination findings, and/or or findings from blood/urine tests. The nature, time of onset, duration and severity will be documented, together with the Investigator's opinion of the relationship to the Medicinal cannabis product.
# Review of the dose and side effects was conducted by the doctor at 2 weeks; the doctors then advise whether to increase/or decreases doses. Reviews and clinical visits beyond the 2 weeks occurred monthly or more often as required by the patient due to efficacy and side effects.
# [2] = tested on: symptoms of insomnia; assay: Insomnia Severity Index (ISI) score in patients treated with CBD only; format: in vivo, human; parameters: key to Change in ISI score, Visit 1 coefficient in model with interaction terms / Change in ISI score between Visit 0 and Visit 1, by initial assessment category / Change in ISI score between Visit 0 and Visit 3 (third follow-up): change in Insomnia Severity Index (7-item self-report) score
# Description: Insomnia may present as disturbed sleep, inability to get to sleep, inability to stay asleep and/or sleep that leaves the subject tired upon waking. The insomnia may be assessed using the Insomnia Severity Index (ISI) 7-item self-report questionnaire. […] More importantly perhaps, this global measure has been employed in number of recent clinical trials to assess the responses in insomnia to a wide variety of treatments.
# Patients were assessed for inclusion/exclusion using the same screening criteria and population criteria collected for evaluation as in Example 1. Dosing regimens were the same as Example 1.
# Column (1) first presents results from a pooled specification with a time specific dummy variable capturing the first follow-up visit (i.e., Visit 1) as the sole explanatory variable. […] Notice that the constant term (i.e., the intercept) reflects the average ISI score of 14.145 at baseline.
# Column (2) then incorporates patient-fixed effects. Note that when including fixed effects at the person level, the constant term is dropped from the regression, as it is differenced out by the fixed effects estimator—in addition to any other (un)observable time-invariant individual characteristics which may influence ISI scores (such as personality traits or beliefs). As for our coefficient of interest, it continues to emerge as negative and statistically significant. In fact, it remains virtually unchanged from column (1) since the pooled data contains exactly two observations for each patient.
# Finally, column (3) introduces interaction terms between the time dummy variable and binary indicators of starting with an ISI score in the ‘subthreshold insomnia’, ‘clinical insomnia (moderate severity)’, or ‘clinical insomnia (severe)’ category at baseline. The reference category here is determined by patients in the ‘no clinically significant insomnia’ category. Consistent with the visuals from FIG. 1, the reduction in insomnia score at the first follow-up is primarily driven by those who start in the ‘subthreshold insomnia’ category or higher at baseline.
# Exploring this issue of persistence further, Table 9 presents regression-equation checks. In particular, column (1) replicates the benchmark results showing the change in […] between baseline and the first follow-up visit. Columns (2) and columns (3) then re-estimate the results between baseline and the second follow-up visit, and baseline and the third follow-up visit respectively.
# [3] = among the 36 patients that experienced AEs
compound,measurement,setting,value
"C=C(C)C1CCC(C)=CC1c1c(O)cc(CCCCC)cc1O (centres unmarked) [cannabidiol, 2-[3-methyl-6-(1-methylethenyl)-2-cyclohexen-1-yl]-5-pentyl-1,3-benzenediol]",Patients with any AEs,[1]; 36 out of 190 patients on CBD only,19%
same,Share of AEs that were mild (no change in dose or product),[1]; [3],61%
same,Share of AEs that were moderate (requiring change in dose or product),[1]; [3],36%
same,Patients with severe AEs (allergic reactions and constipation) resulting in cessation of the product,[1]; one of the 36 patients with AEs,2.8%
same,Persistence of decrease in insomnia severity,[2]; after 4 and 6 months (Visits 2 and 3) of CBD only treatment,decrease in insomnia severity persists
same,Decrease in insomnia score,[2]; average treatment window of slightly under 13 days,−5.0
same,Fall in insomnia score,[2]; mean treatment horizon of 22 days,−4.1
same,Decline in insomnia score,[2]; mean treatment period of 7 days,−7.2
same,Change in ISI score between Visit 0 and Visit 3 (third follow-up),"[2]; patient fixed effects, N 292, baseline mean 14.145, about 6 months, SE 0.854, p < 0.001",−4.313***
same,Change in ISI score between Visit 0 and Visit 2 (second follow-up),"[2]; patient fixed effects, N 349, baseline mean 14.145, about 4 months, SE 0.581, p < 0.001",−4.141***
same,Response of ISI score to treatment,[2]; patients beginning in the 'no clinically significant insomnia' category,do not exhibit any meaningful response
same,"Mean ISI scores by baseline ISI category, initial versus first follow-up visit (FIG. 10)","[2]; patients starting with subthreshold, moderate and severe clinical insomnia, mean 46.9 days between visits",significantly lower mean ISI scores in the first follow-up visit
same,Average ISI scores over the first six months (FIG. 13),[2]; patients with subthreshold and clinically significant insomnia scores at baseline,significant reduction over the 6-month period
same,Short-term change in ISI score from baseline to first follow-up (Visit 1 coefficient),"[2]; pooled specification, no patient fixed effects, 228 patients, baseline mean 14.145, average 46.9 days, SE 0.393, p < 0.001",−3.254***
same,Change in ISI score between visits versus cannabidiol dosage,[2]; prescribed between approximately 10 mg to 200 mg,report less insomnia at the first follow-up visit
same,"Change in ISI score, Visit 1 coefficient in model with interaction terms","[2]; reference category 'no clinically significant insomnia' at baseline, patient fixed effects, 228 patients, SE 0.646, not significant",0.959
same,"Change in ISI score, Visit 1 × subthreshold insomnia interaction coefficient","[2]; relative to 'no clinically significant insomnia', patient fixed effects, 228 patients, SE 0.901, p < 0.001",−3.308***
same,"Change in ISI score, Visit 1 × clinical insomnia (moderate severity) interaction coefficient","[2]; relative to 'no clinically significant insomnia', patient fixed effects, 228 patients, SE 0.970, p < 0.001",−6.231***
same,"Change in ISI score, Visit 1 × clinical insomnia (severe) interaction coefficient","[2]; relative to 'no clinically significant insomnia', patient fixed effects, 228 patients, SE 1.039, p < 0.001",−7.122***
same,"Change in ISI score between Visit 0 and Visit 1, by initial assessment category","[2]; subsample Clinical insomnia (moderate severity), 70 patients, baseline mean 17.757, SE 0.726, p < 0.001",−5.271***
same,"Change in ISI score between Visit 0 and Visit 1, by initial assessment category","[2]; subsample Clinical insomnia (severe), 43 patients, baseline mean 24.256, SE 0.823, p < 0.001",−6.163***
same,"Change in ISI score between Visit 0 and Visit 1, by initial assessment category","[2]; subsample No clinically significant insomnia, 49 patients, baseline mean 3.857, SE 0.652, not significant",0.959
same,"Change in ISI score between Visit 0 and Visit 1, by initial assessment category","[2]; subsample Subthreshold insomnia, 66 patients, baseline mean 11.364, SE 0.631, p < 0.001",−2.349***
